Converted amounts (≈) assume the structure as drawn.
Columns and labels:
[1] = test system: Streptococcus pyogenes C; experiment: In vitro antibacterial activity (M.I.C.), scalar dilutions on agar plates; type: cell-based
Method: (§1) The method was that of scalar dilutions of the test products on agar plates, in a 1:2 dilution ratio. Bacterial suspensions grown overnight in Brain Heart Infusion DIFCO, were diluted 1/100 in new culture medium and inoculated by means of a multiinoculation device.
(§2) M.I.C. values were determined by visual observation of bacterial growth, after 18 hours incubation, at 37°C.

[2] = test system: Escherichia coli OMI 16; experiment: as above; type: cell-based; conditions: 18 hours incubation at 37°C
Method: as §1, §2

[3] = test system: Staphylococcus aureus 35; experiment: as above; type: cell-based
Method: as §1, §2

[4] = test system: Streptococcus pyogenes A/1; experiment: as above; type: cell-based
Method: as §1, §2

[5] = test system: Pseudomonas aeruginosa OMI 1; experiment: as above; type: cell-based; conditions: 18 hours incubation at 37°C
Method: as §1, §2

[6] = test system: Klebsiella pneumoniae ATCC 1003; experiment: as above; type: cell-based
Method: as §1, §2

[7] = test system: Staphylococcus aureus ATCC 9144; experiment: as above; type: cell-based
Method: as §1, §2

[8] = test system: Sarcina lutea ATCC 9341; experiment: as above; type: cell-based; conditions: 18 hours incubation at 37°C
Method: as §1, §2

[9] = test system: Streptococcus faecalis OMI 1; experiment: as above; type: cell-based; conditions: 18 hours incubation at 37°C
Method: as §1, §2

[10] = test system: Streptococcus faecalis OMI 2; experiment: as above; type: cell-based; conditions: 18 hours incubation at 37°C
Method: as §1, §2

[11] = test system: Proteus vulgaris OMI 4; experiment: as above; type: cell-based; conditions: 18 hours incubation at 37°C
Method: as §1, §2

[12] = test system: Staphylococcus aureus 38; experiment: as above; type: cell-based
Method: as §1, §2

[13] = test system: Escherichia coli OMI 17; experiment: as above; type: cell-based; conditions: 18 hours incubation at 37°C
Method: as §1, §2

[14] = test system: Aspergillus fumigatus 2; experiment: In vitro antimycotic activity (M.I.C.), scalar dilutions in liquid medium on Microtiter plates; type: cell-based
Method: (§3) The method is that of scalar dilutions of the test compounds on Microtiter plates, in a 1:2 dilution ratio. Suspensions (titre: 10^4) of fungal sporae and Candida cells, grown on Sabouraud, and Dextrose Agar, were collected at the moment of use in the same medium used for the test and inoculated by means of a multi inoculation Microtiter device.
(§4) M.I.C. values were determined by means of visual observation of fungal growth respectively after 24 hours (Candida albicans) and 48 and 72 hours (dermatophytes) incubation at 24°C.

[15] = test system: Microsporum canis 1; experiment: as above; type: cell-based
Method: as §3, §4

[16] = test system: Microsporum canis 2; experiment: as above; type: cell-based; conditions: hospital isolate, 48 and 72 hours incubation at 24°C
Method: as §3, §4

[17] = test system: Tricophyton mentagrophites 1; experiment: as above; type: cell-based
Method: as §3, §4

[18] = test system: Candida albicans 3; experiment: as above; type: cell-based
Method: as §3, §4

[19] = test system: Aspergillus fumigatus 1; experiment: as above; type: cell-based
Method: as §3, §4

[20] = test system: Epidermophyton floccosum 1; experiment: as above; type: cell-based
Method: as §3, §4

[21] = test system: Candida albicans 1; experiment: as above; type: cell-based
Method: as §3, §4

[22] = test system: Candida albicans 2; experiment: as above; type: cell-based
Method: as §3, §4

[23] = Pharmacokinetics in the rat by oral administration (serum and urinary concentrations by agar-well diffusion bioassay)

Molecule “1-{[2-(2,4-dichlorophenyl)-2-(2,4-dichlorophenyl)methoxy]ethyl}-1-pivaloyloxymethyl-lH-imidazolium chloride [RG 024]” has a M.I.C. ([1]; Streptococcus pyogenes C, Isosensitest agar, 18 hours incubation at 37°C) of 0.39 µg/mL, a M.I.C. ([2]; Isosensitest agar) of 6.25 µg/mL and a M.I.C. ([3]; Staphylococcus aureus 35, Isosensitest agar, 18 hours incubation at 37°C) of 0.39 µg/mL. The M.I.C. ([4]; Streptococcus pyogenes A/1, Isosensitest agar, 18 hours incubation at 37°C) was 0.19 µg/mL, the M.I.C. ([5]; Isosensitest agar) was greater than 200 µg/mL and the M.I.C. ([6]; Klebsiella pneumoniae ATCC 1003, Isosensitest agar, 18 hours incubation at 37°C) was 12.5 µg/mL. It also gave a M.I.C. ([7]; Staphylococcus aureus ATCC 9144, Isosensitest agar, 18 hours incubation at 37°C) of 0.19 µg/mL, a M.I.C. ([8]; Isosensitest agar) of 0.19 µg/mL and a M.I.C. ([9]; Isosensitest agar) of 6.25 µg/mL. It also gave a M.I.C. ([10]; Isosensitest agar) of 6.25 µg/mL, a M.I.C. ([11]; Isosensitest agar) of 50 µg/mL and a M.I.C. ([12]; Staphylococcus aureus 38, Isosensitest agar, 18 hours incubation at 37°C) of 0.19 µg/mL. For the same molecule, the M.I.C. ([13]; Isosensitest agar) was 6.25 µg/mL, the M.I.C. ([14]; Aspergillus fumigatus 2, hospital isolate, liquid medium, incubation at 24°C) was 3.12 µg/mL and the M.I.C. ([15]; Microsporum canis 1, hospital isolate, liquid medium, 48 and 72 hours incubation at 24°C) was 12.5 µg/mL. It also gave a M.I.C. [16] of 6.12 µg/mL, a M.I.C. ([17]; Tricophyton mentagrophites 1, hospital isolate, liquid medium, 48 and 72 hours incubation at 24°C) of 0.78 µg/mL and a M.I.C. ([18]; Candida albicans 3, hospital isolate, liquid medium, 24 hours incubation at 24°C) of 0.78 µg/mL. For the same molecule, the M.I.C. ([19]; Aspergillus fumigatus 1, hospital isolate, liquid medium, incubation at 24°C) was 6.25 µg/mL, the M.I.C. ([20]; Epidermophyton floccosum 1, hospital isolate, liquid medium, 48 and 72 hours incubation at 24°C) was 1.56 µg/mL and the M.I.C. ([21]; Candida albicans 1, hospital isolate, liquid medium, 24 hours incubation at 24°C) was 1.56 µg/mL. For the same molecule, the M.I.C. ([22]; Candida albicans 2, hospital isolate, liquid medium, 24 hours incubation at 24°C) was 0.39 µg/mL.

`Clc1ccc(COC(Cn2ccnc2)c2ccc(Cl)cc2Cl)c(Cl)c1` (stereo not drawn) [miconazole] gave an MIC ([1]; Streptococcus pyogenes, 18 h) of 0.39 µg/mL (≈ 0.937 µM), an MIC ([2]; OMI16, Isosensitest agar) of 25 µg/mL (≈ 60.1 µM) and an MIC ([3]; Staphylococcus aureus, 35, 18 h) of 6.25 µg/mL (≈ 15 µM). The MIC ([4]; Streptococcus pyogenes, 18 h) was 0.39 µg/mL (≈ 0.937 µM), the MIC ([5]; OMI1, Isosensitest agar) was greater than 200 µg/mL and the MIC ([6]; Klebsiella pneumoniae, ATCC1003, 18 h) was 25 µg/mL (≈ 60.1 µM). The MIC ([7]; Staphylococcus aureus, ATCC9144, 18 h) was 0.39 µg/mL (≈ 0.937 µM), the MIC ([8]; Micrococcus luteus, ATCC9341, Isosensitest agar) was 0.19 µg/mL (≈ 0.457 µM) and the MIC ([9]; Enterococcus faecalis, OMI1, Isosensitest agar) was 12.5 µg/mL (≈ 30 µM). For the same molecule, the MIC ([10]; Enterococcus faecalis, OMI2, Isosensitest agar) was 6.25 µg/mL (≈ 15 µM), the MIC ([11]; OMI4, Isosensitest agar) was 100 µg/mL (≈ 240 µM) and the MIC ([12]; Staphylococcus aureus, 38, 18 h) was 0.39 µg/mL (≈ 0.937 µM). For the same molecule, the MIC ([13]; OMI17, Isosensitest agar) was 12.5 µg/mL (≈ 30 µM), the “presence / detectability of the compound over time” value [23] was “may not be detected in significant amounts after the 6 ^th hour” and the MIC ([14]; Aspergillus fumigatus, 2) was 6.25 µg/mL (≈ 15 µM). It also gave an MIC ([15]; Microsporum canis, 1) of 12.5 µg/mL (≈ 30 µM), an MIC [16] of 6.12 µg/mL (≈ 14.7 µM) and an MIC [17] of 1.56 µg/mL (≈ 3.75 µM). It also gave an MIC ([18]; Candida albicans, 3, 24 h) of 1.56 µg/mL (≈ 3.75 µM), an MIC ([19]; Aspergillus fumigatus, 1) of 6.25 µg/mL (≈ 15 µM) and an MIC ([20]; Epidermophyton floccosum, 1) of 1.56 µg/mL (≈ 3.75 µM). The MIC ([21]; Candida albicans, 1, 24 h) was 3.12 µg/mL (≈ 7.5 µM) and the MIC ([22]; Candida albicans, 2, 24 h) was 1.56 µg/mL (≈ 3.75 µM).

Reference: patent EP0195116A2, “Compound having antibacterial and antimycotic activities, preparation thereof and pharmaceutical compositions containing it” (ISTITUTO FARMACO BIOLOGICO RIPARI GERO S.r.l., priority 1985, dated 1986)
